Three compounds from US11998008B2, “Pesticides and methods of controlling pests” (The State of Israel, Ministry of Agriculture & Rural …, priority 2017, dated 2024) can be followed below.

The subject of one series is tomato strain Ikram. The conditions noted are these: in vivo, 3 days.
The next series deals with peanut seeds. Put plainly: Phytotoxic effect on peanut seeds in pots of loam soil. Format: in vivo. The conditions noted are these: 16 days; for Number of germinated seeds: 9 seeds sown. The source says:
The phytotoxic effect of 2-cyclohexen-1-one was also examined on peanut seeds. The concentrations tested were: 0, 10, 20, and 40 ppm, 3 pots for each concentration. After mixing the loam soil with 2-cyclohexne-1-one, three peanut seeds were sown in each pot and let to grow for 16 days.

Series [1] has as its system tomato seedlings strain Ikram. Nature of the series: Phytotoxic effect on tomato seedlings in pots of pretreated loam soil. The conditions noted are these: 9 days. Format: in vivo. How it is done: The phytotoxic effect of 2-cyclohexen-1-one in pots was examined on tomato seedlings strain Ikram. Pots (9-10 repetitions) were filled with 500 g of loam soil pretreated with 2-cyclohexen-1-one at final concentration of 0, 50, and 60 ppm. Then, tomato seedling was planted in each pot and allowed to grow for 9 days. The phytotoxic effect was evaluated by counting the number of live seedling and measuring their heights.

In the next series the test system is Meloidogyne javanica J2s. Put plainly: Greenhouse nematocidal experiment with susceptible tomato plants in inoculated loam. In kind it is in vivo. The conditions noted are these: tomato harvested after 8 weeks. As to the method: The activity of trans-2-octenal against nematodes was examined in a greenhouse experiment using stage 2 juveniles of the rot-knot nematode Meloidogyne javanica. […] After 2 days, the inoculated soil was treated with 30 ppm of trans-2-octenal and incubated for additional 5 days. Then, susceptible tomato plants were planted, and allowed to grow in a growing chamber for 8 weeks. At the end of the experiment, the plants, along with their root systems, were harvested from their pots and evaluated for incidence of root galling. In addition, M. javanica eggs were extracted from each root and counted, and the number of eggs per gram root was calculated. As shown in FIGS. 14A-14D, trans-2-octenal reduced the galling index and the number of eggs per gram root. […] The activity of 2-cyclohexen-1-one against nematodes was examined in a greenhouse experiment using stage 2 juveniles of the rot-knot nematode Meloidogyne javanica. The experiment was performed as described for trans-2-octenal. […] After 2 days, the inoculated soil was treated with 15 or 31 ppm of 2-cyclohexen-1-one and incubated for additional 5 days. Then, susceptible tomato plants were planted, and allowed to grow in a growing chamber for 8 weeks. At the end of the experiment, the plants, along with their root systems, were harvested from their pots and evaluated for incidence of root galling. In addition, M. javanica eggs were extracted from each root and counted, and the number of eggs per gram root was calculated.

Series [2] has as its system F. oxysporum f. sp. radicis-cucumerium. Put plainly: Fungicidal activity assay on PDA in sealed Petri dish (growth inhibition and mortality). In kind it is cell-based, Fusarium oxysporum f. sp. radicis-cucumerinum. As to the method:
(§1) Each compound was placed on a disconnected cover from an Eppendorf tube that was located in the middle of the Petri dish and a hyphae-containing plug of each test fungus was added to the culture plate. In exemplary procedures, the tested compounds trans-2-heptenal, trans-2-octenal were tested in comparison with octanal, trans-2-octen-1-ol, methyl trans-2-octenoate, trans-3-octen-2-one and 3-pentenenitrile. In addition, cyclic ketones as 2-cyclopenten-1-one, 2-cyclohexen-1-one and α-tetralone were also examined. Then, the culture plate was sealed with parafilm and incubated at room-temperature for 2 days, after which the growth of the test fungi in those dishes was compared with those in the test compound-free control dishes. At the end of the assay, the viability of each test fungus was evaluated by transferring inoculum plugs to fresh PDA plates and observing the growth that developed within the next 2 days. The test fungi used in this study included but were not limited to Alternaria alternata, Botrytis cinerea, Sclerotinia rolfsii, Penicillium digitatum, Fusarium oxysporum f. sp. radicis-cucumerinum and Rhizoctonia solani.

Series [3] relates to lettuce seedling strain Raviv. The conditions noted are these: in vivo, 3 days.
Description: (§2) An experiment in a larger scale was performed in loam soil in which the seedling were planted directly in the treated plot. The soil was treated with 0, 25, 50, 100, 200, 400, 800, and 1,600 ppm of emulsion of trans-2-octenal. The compound was applied using the irrigation system. A day later, tomato seedling strains Ikram and Abigail and lettuce seedling strain Raviv (10 seedlings each) were planted into the treated soil of each concentration. Eleven days later, the number of viable seedlings was counted.
For a further series, the system named is test fungi. Nature of the series: Fungicidal activity assay on PDA, summaries over the test fungi. The following applies: comparison within the series. Format: cell-based. As to the method: as §1, with “In exemplary procedures, the fungicidial activity of the compounds listed in Table 2 were examined by activity assays as follow: Petri dishes, 90 mm in diameter, with air volume of 80 mL, contained 10-12 mL of growth medium comprising potato dextrose agar (PDA) (Acumedia, Lansing, Michigan, USA) amended with tetracycline at 12 μg/mL. Each” for “Each”

For the next series, the system named is S. rolfsii. Put plainly: Fungicidal activity assay on PDA in sealed Petri dish (growth inhibition and mortality). The following applies: S. rolfsii; for I - Inhibition class: 2 days; for I - Inhibition, minimal concentration that inhibited the growth: concentration to which the class above belongs. In kind it is cell-based, Sclerotinia rolfsii. How it is done: as §1

For the next series, the system named is R. solani. Put plainly: microbe, parasite or virus in culture. In kind it is cell-based. As to the method:
as §1

The subject of a further series is tomato strain Kilates. The conditions noted are these: in vivo, 3 days.
Series [4] relates to Meloidogyne javanica second stage juveniles (J2s). Put plainly: Nematocidal activity: viability of J2 nematodes after 2 days exposure to the compound in a sealed box. The following applies: in vivo.
The next series deals with A. alternata. Nature of the series: Fungicidal activity assay on PDA in sealed Petri dish (growth inhibition and mortality). Format: cell-based, Alternaria alternata. How it is done:
as §1, with “In exemplary procedures, the fungicidial activity of the compounds listed in Table 2 were examined by activity assays as follow: Petri dishes, 90 mm in diameter, with air volume of 80 mL, contained 10-12 mL of growth medium comprising potato dextrose agar (PDA) (Acumedia, Lansing, Michigan, USA) amended with tetracycline at 12 μg/mL. Each” for “Each”

Series [5] relates to Meloidogyne javanica second stage juveniles (J2s). Put plainly: Nematocidal activity: viability of J2 nematodes after 2 days exposure to the compound in a sealed box. Format: in vivo. The text has this:
In exemplary procedures, the sedentary root-knot nematode from the genus Meloidogyne javanica second stage juveniles (J2s) was propagated on greenhouse-grown nematode-susceptible tomato Lycopersicon esculentum cv. ‘Avigail 870’ (Hazera, Shikmim, Israel), and nematode eggs were bulk-extracted from the roots with 0.05% (v/v) sodium hypochlorite (NaOCl) followed by sucrose flotation and successive sievings through nylon filters of 300, 120, 60, and 30 μm mesh sizes (AD Sinun Technologies, Petach Tikvah, Israel). For hatching J2, extracted eggs were placed on 30-μm sieves (AD Sinun Technologies) in 0.01 M MES (2-(N-morpholino) ethanesulfonic acid hydrate) pH 6.5 buffer under aseptic conditions in darkness for 5 days, and hatching J2s were collected for further experiments.
Seven vials, each containing 300 J2 nematodes with 0.5 mL of 0.01 M 2-(N-morpholino)ethanesulfonic acid (MES) buffer, were exposed to cyclic ketone compounds in order to examine their nematocidal activity and reduction in viability. In addition, a humid environment in a sealed 1 L box was maintained by addition 5 ml of distilled H2O to a 50-mm Petri plate. The box was sealed after compound addition into each 50-mm Petri plate together with 5-250 mg of perlite particles and incubated for 2 days in the dark at 25±1° C. C5 and C6 saturated and α,β-unsaturated cyclic ketones were tested for their nematocidal activity. The J2 nematodes viability was examined following exposure to the cyclic ketone compounds, by a straightforward small-scale nematode extraction method, based on the traditional Baermann funnel method. Briefly, all nematode suspensions were loaded onto 30-μm (AD Sinun Technologies) filters (1.0-1.5 cm height, 1.1-2.0 cm^3 internal area), and the nematodes were washed twice with 300 μL of 0.01 M MES buffer in order to remove any residues. Then, filters holding nematodes were placed into 15 mL Falcon centrifuge tubes, each containing 900 μL of 0.01 M of MES buffer. These filters allow active passage of only living J2s while paralyzed or dead nematodes remain on top of the filter. The whole apparatus including the filter holding the nematodes and the Falcon tubes were placed in the dark for 3 h at 25±1° C. Then, the filters were removed and the viable nematodes, which were able to actively cross the filter toward the 0.01 M of MES buffer, were collected from the Falcon tube and counted using a Nematode Counting Slide (Chalex LLC, Portland, OR, USA) and a SV11 stereomicroscope (Zeiss, Jena, Germany).
Data were analyzed by the JMP 12 software package (SAS Inc., Cary, NC, USA). Mean numbers of viable J2s under various conditions were subjected to one-way analysis of variance (ANOVA), followed by the Tukey-Kramer multiple comparison test, with significance set at P<0.05.

Another series has as its system P. digitatum. Nature of the series: Fungicidal activity assay on PDA in sealed Petri dish (growth inhibition and mortality). Format: cell-based, Penicillium digitatum. As to the method: as §1, with “In exemplary procedures, the fungicidial activity of the compounds listed in Table 2 were examined by activity assays as follow: Petri dishes, 90 mm in diameter, with air volume of 80 mL, contained 10-12 mL of growth medium comprising potato dextrose agar (PDA) (Acumedia, Lansing, Michigan, USA) amended with tetracycline at 12 μg/mL. Each” for “Each”

The next series relates to B. cinerea. The series is described as above. Format: cell-based, Botrytis cinerea. As to the method: as §1, with “In exemplary procedures, the fungicidial activity of the compounds listed in Table 2 were examined by activity assays as follow: Petri dishes, 90 mm in diameter, with air volume of 80 mL, contained 10-12 mL of growth medium comprising potato dextrose agar (PDA) (Acumedia, Lansing, Michigan, USA) amended with tetracycline at 12 μg/mL. Each” for “Each”

The mark [6] stands for this setting: NA + number = still viable in the highest concentration tested (given as >).
The mark [7] stands for this setting: concentration to which the class above belongs.

Description for tomato strain Ikram: as §2
Description for tomato strain Kilates: The soil was treated with 0, 400 and 800 ppm of emulsion of 2-cyclohexene-1-one. The compound was applied using the irrigation system. A day later, tomato seedling strains Ikram, and Kilates and lettuce seedling strain Raviv (10 seedlings each) were planted into the treated soil of each concentration. Three (3) days later, the number of seedlings was counted.

Consider `O=C1C=CCCC1` [2-cyclohexen-1-one], for which the “concentration at which phytotoxic effect occurred” value in the series on tomato strain Ikram and with tomato strain Kilates was 400 ppm each time. For the same compound, the “% Viability” value is 89% in the series on peanut seeds (10 ppm); 100% in the series on peanut seeds (20 ppm); 89% with peanut seeds (40 ppm); 100% in [1] (50 ppm); 67% in [1] (60 ppm). The “Number of germinated seeds” value was found to be 8 with peanut seeds (10 ppm), 9 in the series with peanut seeds (20 ppm) and 8 with peanut seeds (40 ppm). The “Seedling height (Mean ± SD)” value in series [1] (50 ppm) turned out to be 21 ± 3 cm; in series [1] (60 ppm), 16 ± 2 cm. Besides, the “concentration at which phytotoxic effect was obtained” value in [1] (of 0, 50 and 60 ppm tested) was determined as 60 ppm. In addition, the “concentration sufficient to reduce the galling index and the number of eggs per gram root” value in the series with Meloidogyne javanica J2s is reported as 15 ppm. For the same compound, the MFC was over 25 µg/mL in series [2] (Fusarium oxysporum, NA + number = still viable in the highest concentration tested (given as >), read-out: M - Mortality, minimal concentration that killed the fungus); over 25 µg/mL with S. rolfsii (Agroathelia rolfsii, NA + number = still viable in the highest concentration tested (given as >), read-out: M - Mortality, minimal concentration that killed the fungus); over 25 µg/mL in the series with R. solani (Rhizoctonia solani, read-out: M - Mortality, minimal concentration that killed the fungus). In addition, the “concentration at which phytotoxic effect was displayed” value in series [3] turned out to be 800 ppm. Also, the “fungicidal activity in words” value in the series with test fungi was “fungicidal activity, to some extent”.
As to `CC(=O)/C=C/C1C(C)=CCCC1(C)C` (stereo not drawn) [α-ionone], the “Activity: the most effective concentration” value in series [4] is “N 250 ppm”. For the same compound, the “I - Inhibition class” value in the series with A. alternata (2 days) is listed as “LI (Low inhibition - 51-75% of growth inhibition compared to control.)”; with S. rolfsii it was “LI (Low inhibition - 51-75% of growth inhibition compared to control.)”; in the series with P. digitatum (2 days), “NI (<50% growth inhibition)”; in the series with B. cinerea (2 days), “LI (Low inhibition - 51-75% of growth inhibition compared to control.)”. Moreover, the “M - Mortality, minimal concentration that killed the fungus” value in the series with A. alternata (setting [6]), in the series on S. rolfsii (setting [6]), with P. digitatum (setting [6]) and in the series on B. cinerea (setting [6]) was over 1250 ppm each time. Besides, the “I - Inhibition, minimal concentration that inhibited the growth” value with A. alternata (setting [7]), in the series with S. rolfsii, with P. digitatum (setting [7]) and with B. cinerea (setting [7]) was 1250 ppm in each case. For the same compound, the “Activity: reduction in J2s viability relative to non exposed control J2s (class)” value in series [5] (in vivo) is on record as “N 250 (key: S: >90% reduction in viability; M: 76-90% reduction in viability; L: 51-75% reduction in viability; N: <50% reduction in viability)”.
For the compound `C/C=C(\C)C=O` [Tiglic aldehyde], in series [4], the “Activity: the most effective concentration” value is “M 25 ppm”. For the same compound, the “I - Inhibition class” value in series [2] (2 days) is “NI (<50% growth inhibition)”; with S. rolfsii, “MI (Medium inhibition - 76-99% of growth inhibition)”; in the series on R. solani (R. solani, 2 days), “MI (Medium inhibition - 76-99% of growth inhibition)”. The “M - Mortality, minimal concentration that killed the fungus” value in series [2] (setting [6]) is over 25 ppm; in the series with S. rolfsii (setting [6]) it was over 25 ppm; in the series on R. solani (R. solani, NA + number = still viable in the highest concentration tested (given as >)) it was over 25 ppm. Moreover, the “I - Inhibition, minimal concentration that inhibited the growth” value in series [2] (setting [7]) amounted to 25 ppm; in the series on S. rolfsii, 25 ppm; in the series with R. solani (R. solani, concentration to which the class above belongs), 25 ppm. Also, the “Activity: reduction in J2s viability relative to non exposed control J2s (class)” value in series [5] (at the concentration given, 2 days incubation) is listed as “M (76-90% reduction in viability)”.
